Reference: patent publication US20030228357A1, “Dry granulated formulations of azithromycin” (Pfizer Inc., priority 2002, published 2003)

What was measured:
[1] = Tablet friability, Vanderkamp Friabulator (100 rotations/4 minutes); format: physicochemical; conditions: Table 4D; high drug loading; diluent DCP, dihyd.; modified capsule shape
[2] = Tablet disintegration time, Automatic Disintegration Tester; format: physicochemical; conditions: Table 2A; Long blend; Oval tooling; distilled water at 37° C.
Experimental: The disintegration time was determined in distilled water at 37° C. using an Automatic Disintegration Tester (Model ZT72, Erweka USA Inc, Milford, Conn.) for the long blend tablets. Even with extensive blending times with magnesium stearate, reasonably short disintegration times of 15 and 20 seconds were obtained.

Friability [1]: 0.49% | Mean disintegration Time [2]: 15 s
Structure (SMILES): CC[C@H]1OC(=O)[C@H](C)[C@@H](O[C@H]2C[C@@](C)(OC)[C@@H](O)[C@H](C)O2)[C@H](C)[C@@H](O[C@@H]2O[C@H](C)C[C@H](N(C)C)[C@H]2O)[C@](C)(O)C[C@@H](C)CN(C)[C@H](C)[C@@H](O)[C@]1(C)O [Form A, azithromycin dihydrate, reference compound]
